Legend:
[1] = test system: forebrain cholinergic neurons (cultures of rat basal forebrain); assay: ChAT activity in primary cultures of fetal rat basal forebrain (septal) cholinergic neurons treated with neurotrophins and K-252 compounds; format: cell-based; conditions: for NT-3 potentiation (ChAT, cholinergic neurons): 200 ng/ml NT-3 and increasing concentrations of compound (FIG. 6); for ED50, stimulation of ChAT activity: mean±S.E., n=8
Method: Recombinant human NGF (rhNGF), BDNF (rhBDNF), and NT-3 (rhNT-3) and K-252b were added to primary cultures of fetal rat brain neurons containing either forebrain cholinergic or midbrain dopaminergic neurons. A broad range of concentrations of K-252b were tested in presence of 50 ng/ml rhNGF, 200 ng/ml rhBDNF and 1 μg/ml rhNT-3, growth factor concentrations producing maximal trophic actions on cholinergic neurons. The trophic action was monitored by measuring the activity of ChAT, a parameter reflecting both survival and transmitter-specific differentiation of cholinergic cells.
(§1) Primary cultures of fetal rat brain septal and mesencephalic cells were prepared in a heretofore known manner [Knusel et al., supra]. Briefly, defined areas were dissected from fetal rat brains (Wistar, E15-16, Charles River, Mass.). The septal area contained the cholinergic neurons from septum, diagonal band of Broca and nucleus basalis. The ventral mesencephalon containing the dopaminergic neurons of the substantia nigra and the ventral tegmental area was dissected and dissociated mechanically. The cells were plated in 16 mm multiwell plates precoated with polyethyleneimine (1 mg/ml, 37° C., overnight), containing 0.5 ml modified L-15 medium supplemented with 5% heat inactivated horse serum and 0.5% heat inactivated fetal calf serum. Modified L-15 was prepared [Knusel et al., "Selective and Nonselective Stimulation of Central Cholinergic and dopaminergic Development in vitro by Nerve Growth Factor, Basic Fibroblast Growth Factor, Epidermal Growth Factor, Insulin and the Insulin-like Growth Factors I and II," J. Neurosci. 10:558-570 (1990)] by adding various amino acids, vitamins, antibiotics, glucose and NaHCO3 to Leibovitz's L-15 medium (Gibco, Grand Island, N.Y.). Plating densities were 4×10^5 cells/cm^2 for basal forebrain cultures and 3×10^5 cells/cm^2 for mesencephalic cultures. Of these cells, 0.5 to 1% were cholinergic or dopaminergic, respectively. Growth factors were typically added on the second day of culture and the cells were grown for 5 or more days. For ChAT assays tissue was homogenized in 250 μl of 50 mM Tris-HCl buffer, pH 6.0 with 0.3% Triton X-100. [1-^14 C]acetylcoenzyme A (NEN) concentration was 20 μM and specific activity 4.09 Ci/mol. To measure dopamine uptake, cultures were preincubated for 5 min at 37° C. with 250 μl incubation solution (5 mM glucose, 1 mM ascorbic acid in PBS) containing 1 mM pargyline. [^3 H]dopamine (37 Ci/mmol) was then added to give a final concentration of 50 nM and the cultures were incubated for another 15 minutes. Blanks were obtained by incubating cells at 0° C.
FIG. 1 illustrates levels of ChAT activity in cultures of rat basal forebrain treated with rhNGF, rhBDNF, or rhNT- and K-252b. Growth factors were added on the second day of culture and the cells were grown for 5 days. Growth factor concentrations producing maximal elevations of ChAT activity were used. In FIG. 1, .largecircle. represents the control; .quadrature., 50 ng/ml rhNGF; Δ, 200 ng/ml rhBDNF; and .tangle-soliddn., 1 μg/ml rhNT-3. The ChAT stimulation mediated by all three neurotrophins was inhibited by K-252b at concentrations above 200 nM. […] N=4 per data point. Error bars represent SEMs and were omitted where they would have appeared smaller than the symbol.
These compounds were accordingly tested for possible NT-3 potentiation at lower concentrations than necessary for NGF inhibition. Culture conditions were as described in Example 1. Cultures were untreated (controls) or treated with 200 ng/ml NT-3 and increasing concentrations of the inhibitors. The findings are shown in FIG. 6, in which "Stau", "K2a", "K2b", "K57", "K58", "K59" represent, respectively, staurosporine, K-252a, K-252b, KT5720, KT5823, and KT5296. […] Staurosporine and KT5296 were ineffective.

[2] = Cytotoxicity in vitro; format: cell-based
[3] = test system: phosphorylation of selected proteins; conditions: cited from earlier work
[4] = test system: PC12 pheochromocytoma cells; conditions: into neuron-like cells; cited from earlier work
[5] = test system: PC12 cells; conditions: cited from earlier work
[6] = test system: trk; assay: trk tyrosine phosphorylation in PC12 cells (immunoprecipitation, anti-phosphotyrosine immunoblot); format: cell-based
Method: To measure the status of trk tyrosine phosphorylation, PC12 cells were lysed and immunoprecipitated with anti-trk serum. The trk proteins were subjected to 7.5% SDS-PAGE and analyzed by immunoblotting with anti-phosphotyrosine antibodies as described in detail in the literature [Kaplan, D. R. et al., "PDGF beta receptor stimulates tyrosine phosphorylation of GAP and association of GAP with a signaling complex," Cell 61:125-133 (1990)]. Tyrosine phosphorylation of cellular proteins was assayed by probing Western blots of lysates of PC12 cells incubated with K-252b and NT-3 or NGF with anti-phosphotyrosine antibodies. Phospholipase C gammal was identified in these blots as described elsewhere [Vetter, M.L. et al., "Nerve growth factor rapidly stimulates tyrosine phosphorylation of phospholipase C-gammal by a kinase activity associated with the product of trk protooncogene," Proc. Natl Acad. Sci. USA 88:5650-5654 (1991)].
(§2) Experiments on PC12 cells confirmed observations made on primary neuron cultures. Treatment with K-252b stimulated NT-3 induced neurite outgrowth and trk tyrosine phosphorylation in PC12 cells while inhibiting NGF induced effects. PC12 cells were incubated for 48 hours with K-252b (50 nM) and NT-3 or NGF (50 ng/ml). FIG. 4A illustrates the % cells with neurites after 48 hours incubation. Neurites were scored if they were a length of one cell body or more. PC12 cells were subsequently lysed and immunoprecipitated with anti-trk serum. trk proteins were subjected to SDS-PAGE and analyzed by immunoblotting with anti-phosphotyrosine antibodies (FIG. 4B). Lane 1, NT-3 +K-252b; lane 2, NT-3; lane 3, NGF +K-252b; lane 4, NGF. For FIG. 4C, PC12 cells were incubated for 1 hour in K-252b (50 nM or 10 μM) and with NT-3 or NGF for 5 minutes prior to lysis; other methods were the same as described for FIG. 4B. Lane 1, NT-3+10 μM K-252b; lane 2, NT-3±50 nM K-252b; lane 3, NT-3; lane 4, NGF+10 μM K-252b; lane 5, NGF+50 nM K-252b; lane 6, NGF; lane 7, untreated control.

[7] = test system: PC12 cells; assay: Neurite outgrowth of PC12 cells; format: cell-based; conditions: NT-3 alone
Method: PC12 cells were grown as described earlier [Kaplan et al., 1990, 1991a, b]. To assess effects on neurite outgrowth, cells were incubated for 48 hours with K-252b (50 nM) and NT-3 or NGF (50 ng/ml). Neurites were scored if they were a length of one cell body or more.
as §2

[8] = test system: midbrain dopaminergic neurons (cultures of ventral mesencephalon); assay: Dopamine uptake in primary cultures of fetal rat ventral mesencephalon; format: cell-based; conditions: for trophic action on dopaminergic neurons (dopamine uptake): growth factor alone
Method: as §1
In Table 1, dopamine uptake is given as fmol/min/culture dish. Cultures were grown in 24-well plates for 7 days in L-15 medium with 5% horse and 0.5% fetal bovine serum and treated with growth factors and K-252b from the second day of culture. rhBDNF, 200 ng/ml; des-IGF-1, 1 μg/ml; n=4; *different from respective control group, p <0.01 (Student's t-test). The apparent difference between control cultures grown in presence and absence of K-252b was statistically not significant. The experiment shown is a representative case of a total of 5 independent experiments.

[9] = test system: chick dorsal root ganglia neurons (DRG); assay: Survival of dissociated chick DRG neurons (embryonic day 9); format: cell-based; conditions: growth factor alone, embryonic day 9 DRG cultures
Method: DRGs of embryonic day 9 chicks were dissected and dissociated using enzymatic and mechanical procedures as described in the literature [Rosenthal, A. et al., "Primary Structure and Biological Activity of a Novel Human Neurotrophic Factor," Neuron 4:767-773 (1990)]. 1800 neurons were plated per well in 96-well tissue culture plates pretreated with polyornithine (500 μg/ml) and laminin (10 μg/ml). Cells were incubated for 48 hrs with or without growth factors and the indicated concentrations of K-252b. Phase-bright cells with elaborated neurites 5× the diameter of the cell bodies were then counted.
Similar to the findings obtained in primary cultures of brain cholinergic neurons, low concentration of K-252b (50 nM) potentiated the survival promoting action of a maximally effective concentration of NT-3 (FIG. 3). Survival of dissociated chick DRG neurons in presence of rhNGF (100 ng/ml) or rhNT-3 (100 ng/ml) and K-252b is illustrated in FIG. 3; concentrations on the horizontal axis are for K-252b. The columns represent means +SEMs. […] High concentrations of K-252b (10 μM) inhibited the action of NGF on sensory neurons, as found for cholinergic neurons (FIG. 3).

CN[C@@H]1C[C@H]2O[C@@](C)([C@@H]1OC)n1c3ccccc3c3c4c(c5c6ccccc6n2c5c31)C(=O)NC4 [staurosporine, reference compound]
NT-3 potentiation (ChAT, cholinergic neurons) [1]: ineffective
selective inhibition of NGF ([1]; central cholinergic neurons): selectively inhibit NGF
cytotoxicity [2]: cytotoxic

COC(=O)C1(OC)CC2OC1(C)n1c3ccccc3c3c4c(c5c6ccccc6n2c5c31)C(=O)N(C)C4 (stereo not drawn) [KT5823]
NT-3 potentiation (ChAT, cholinergic neurons) [1]: potentiation similar to K-252b

CCCCCCOC(=O)C1(O)CC2OC1(C)n1c3ccccc3c3c4c(c5c6ccccc6n2c5c31)C(=O)NC4 (stereo not drawn) [KT5720]
NT-3 potentiation (ChAT, cholinergic neurons) [1]: potentiation similar to K-252b

COC(=O)C1(O)CC2OC1(C)n1c3ccccc3c3c4c(c5c6ccccc6n2c5c31)C(=O)NC4 (stereo not drawn) [K-252a]
effect on NGF stimulated phosphorylation of selected proteins ([3]; NGF stimulated): inhibits
effect on bFGF or EGF stimulated phosphorylation of selected proteins ([3]; bFGF or EGF stimulated): not
NT-3 potentiation (ChAT, cholinergic neurons) [1]: potentiation similar to K-252b
effect on trophic action of NGF on cholinergic neurons (ChAT) ([1]; relatively high dosages): completely and selectively prevent
cytotoxicity [2]: cytotoxic
effect on NGF induced morphological transformation of PC12 cells [4]: prevents
effect on binding of 125I-NGF to PC12 cells [5]: does not interfere

NT-3: recombinant human neurotrophin-3
trk tyrosine phosphorylation by growth factor alone ([6]; 48 hours): no phosphorylation was detectable
trk tyrosine phosphorylation by growth factor alone ([6]; acute, 5 minutes): minimal
neurite outgrowth induced by growth factor alone [7]: low levels
ED50, stimulation of ChAT activity ([1]; NT-3 + 50 nM K-252b): 0.0143 ± 0.0016 µg/mL
ED50, stimulation of ChAT activity ([1]; NT-3 alone): 0.175 ± 0.0726 µg/mL
elevation of ChAT activity relative to the NGF-induced elevation ([1]; NT-3 by itself): approximately 20%
trophic action on dopaminergic neurons (dopamine uptake) [8]: not
promotion of neuronal survival [9]: moderate effect

NGF: recombinant human nerve growth factor
trk tyrosine phosphorylation by growth factor alone ([6]; 48 hours): strongly stimulated
trk tyrosine phosphorylation by growth factor alone ([6]; acute, 5 minutes): pronounced increase
trophic action on dopaminergic neurons (dopamine uptake) [8]: not
promotion of neuronal survival [9]: most effective

B1: rhBDNF: recombinant human brain-derived neurotrophic factor (protein, UniProt P23560 19-247, looked up)
Neurotrophic factor BDNF …: APMKEANIRGQGGLAYPGVRTHGTLESVNGPKAGSRGLTSLADTFEHVIEELLDEDQKVRPNEENNKDADLYTSRVMLSSQVPLEPPLLFLLEEYKNYLDAANMSMRVRRHSDPARRGELSVCDSISEWVTAADKKTAVDMSGGTVTVLEKVPVSKGQLKQYFYETKCNPMGYTKEGCRGIDKRHWNSQCRTTQSYVRALTMDSKKRIGWRFIRIDTSCVCTLTIKRGR
Dopamine uptake, % of Control ([8]; No K-252b, rhBDNF 200 ng/ml or des-IGF-1 1 μg/ml): 183%
Dopamine uptake, Mean ± SEM ([8]; No K-252b, rhBDNF 200 ng/ml or des-IGF-1 1 μg/ml, n=4, 7 days): 28.0 ± 0.3 fmol/min/culture dish
trophic action on dopaminergic neurons (dopamine uptake) [8]: trophically acts
